From article PMC10222987 (Viruses, 2023) come the findings set out here.

The data set is described as follows: in vivo. The settings on record: BALB/c, mouse, sc; for AUC(0-t): AUC0–24.

Turning to `O=C1c2c(O)c(=O)ccn2N([C@@H]2c3ccccc3SCc3c2ccc(F)c3F)[C@@H]2COCCN12` [baloxavir acid], the AUC(0-t) (0.125 mg/kg) was 267 ng·h/mL; the AUC(0-t) (0.25 mg/kg) was 535 ng·h/mL; the AUC(0-t) (0.5 mg/kg) worked out at 961 ng·h/mL; the AUC(0-t) (1 mg/kg) was found to be 1810 ng·h/mL; the AUC(0-t) (8 mg/kg) was 6380 ng·h/mL; the AUC(0-t) (16 mg/kg) stood at 11100 ng·h/mL. The same compound had an AUC(0-t) (32 mg/kg) of 8860 ng·h/mL and an AUC(0-t) (64 mg/kg) of 12600 ng·h/mL. In addition, the Cmax turned out to be 18.7 ng/mL (0.125 mg/kg); 37.3 ng/mL (0.25 mg/kg); 66.1 ng/mL (0.5 mg/kg); 124 ng/mL (1 mg/kg); 222 ng/mL (2 mg/kg); 417 ng/mL (4 mg/kg). Also, the Cmax reads like this: (8 mg/kg) 414 ng/mL; (16 mg/kg) 726 ng/mL; (32 mg/kg) 682 ng/mL; (64 mg/kg) 938 ng/mL.

By AUC(0-t) is commonly meant exposure summed from dosing to a finite time, without extrapolation to infinity. A lower AUC(0-t) goes with less exposure. By Cmax is commonly meant the maximum level reached in the sampled fluid or tissue.
